The results in this text go back to patent publication US20260078122A1, “INDAZOLE COMPOUNDS AS PKMYT1 KINASE INHIBITORS” (Hoffmann-La Roche Inc., priority 2023, published 2026).

Data set [1] in a line: Human hepatocyte stability assay. It is filed as in vitro ADME. The conditions noted are these: 1 μM compound, 1*10^6 cells/mL, 2-120 min.
Data set [2] in a line: Human microsome stability assay. The conditions noted are these: 1 μM compound, 0.5 mg/mL liver microsomal protein, 1 mM NADPH, 37° C., 0-30 minutes. A general note: Liver microsomes are a subcellular fraction often used to study metabolism.
Data set [3] deals with T1, recombinant human Myt1 (full length PKMYT1) (Homo sapiens, UniProt Q99640).
T1 sequence (Q99640 1-499): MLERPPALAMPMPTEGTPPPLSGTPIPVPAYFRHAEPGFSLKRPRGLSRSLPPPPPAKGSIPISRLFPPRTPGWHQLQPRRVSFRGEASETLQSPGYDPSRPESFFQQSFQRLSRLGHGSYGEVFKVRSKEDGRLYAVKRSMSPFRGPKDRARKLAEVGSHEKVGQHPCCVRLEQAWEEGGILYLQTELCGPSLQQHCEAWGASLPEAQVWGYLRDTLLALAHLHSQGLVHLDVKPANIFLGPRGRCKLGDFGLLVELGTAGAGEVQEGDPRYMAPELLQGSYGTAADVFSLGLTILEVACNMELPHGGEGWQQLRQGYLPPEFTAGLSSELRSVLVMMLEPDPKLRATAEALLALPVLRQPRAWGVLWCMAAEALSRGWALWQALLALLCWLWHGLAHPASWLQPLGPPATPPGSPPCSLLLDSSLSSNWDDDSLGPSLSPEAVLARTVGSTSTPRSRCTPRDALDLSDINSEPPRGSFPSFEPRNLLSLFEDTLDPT
The experiment in a line: ADP-Glo assay (Myt1 kinase activity). (In ADP-Glo the light output rises with the ADP produced.)

For `Cc1cc2[nH]c(=O)c(N)c(-c3ccc(F)c4[nH]ncc34)c2nc1C#CC(C)(C)O` [Example 070, 3-Amino-4-(7-fluoro-1H-indazol-4-yl)-6-(3-hydroxy-3-methyl-but-1-ynyl)-7-methyl-1H-1,5-naphthyridin-2-one], the “Clearance of Human hepatocyte (μL/min/10^6 cell)” value (from here on “Clearance of Human hepatocyte”) in data set [1] came to 1.4 μL/min/10^6 cell.

What is called IC50 is the midpoint of a concentration-inhibition curve. Regarding `Cc1cc(Cl)c2[nH]c(=O)c(N)c(-c3ccc(F)c4[nH]ncc34)c2n1` [Example 090, 3-Amino-8-chloro-4-(7-fluoro-1H-indazol-4-yl)-6-methyl-1H-1,5-naphthyridin-2-one], in data set [2], the “Clearance of Human microsome” value was determined as 6.15 mL/min/kg. Also, in data set [3], the IC50 was 13 nM.

As for `Cc1c(C(C)(F)F)cnc2c(-c3ccc(F)c4[nH]ncc34)c(N)c(=O)[nH]c12` [Example 134, 3-Amino-7-(1,1-difluoroethyl)-4-(7-fluoro-1H-indazol-4-yl)-8-methyl-1H-1,5-naphthyridin-2-one], the “Clearance of Human microsome” value in data set [2] is 6.15 mL/min/kg. The IC50 in data set [3] is under 10 nM.

`Cc1ncc(OC(C)C)c2c(-c3ccc(F)c4[nH]ncc34)c(N)c(=O)[nH]c12` [Example 182, 3-Amino-4-(7-fluoro-1H-indazol-4-yl)-5-isopropoxy-8-methyl-1H-1,7-naphthyridin-2-one]: in data set [2], the “Clearance of Human microsome” value was determined as 6.20 mL/min/kg. Further, the IC50 in data set [3] came out at 14.7 nM.

Consider `Cc1c(C2CC2)cnc2c(-c3ccc(F)c4[nH]ncc34)c(N)c(=O)[nH]c12` [Example 100, 3-Amino-7-cyclopropyl-4-(7-fluoro-1H-indazol-4-yl)-8-methyl-1H-1,5-naphthyridin-2-one], for which the “Clearance of Human hepatocyte” value in data set [1] is under 1 μL/min/10^6 cell.

On to `Cc1cc2[nH]c(=O)c(N)c(-c3ccc(F)c4[nH]ncc34)c2nc1C#CCN1CCOCC1` [Example 076, 3-Amino-4-(7-fluoro-1H-indazol-4-yl)-7-methyl-6-(3-morpholinoprop-1-ynyl)-1H-1,5-naphthyridin-2-one], for which, in data set [2], the “Clearance of Human microsome” value came to 8.12 mL/min/kg. Also, in data set [3], the half-inhibitory concentration (IC50) was determined as 14.8 nM.

As to `Cc1ncc(OC(F)F)c2c(-c3ccc(F)c4[nH]ncc34)c(N)c(=O)[nH]c12` [Example 185, 3-Amino-5-(difluoromethoxy)-4-(7-fluoro-1H-indazol-4-yl)-8-methyl-1H-1,7-naphthyridin-2-one], the “Clearance of Human microsome” value in data set [2] was found to be 6.15 mL/min/kg. Further, the IC50 in data set [3] came to 11.4 nM.

As to `Cc1cc(Cl)nc2c(-c3ccc(F)c4[nH]ncc34)c(N)c(=O)[nH]c12` [Example 091, 3-Amino-6-chloro-4-(7-fluoro-1H-indazol-4-yl)-8-methyl-1H-1,5-naphthyridin-2-one], in data set [2], the “Clearance of Human microsome” value was 6.15 mL/min/kg. Also, the IC50 in data set [3] came out at 14 nM.

For the compound `Cc1cnc2c(-c3ccc(F)c4[nH]ncc34)c(N)c(=O)[nH]c2c1C` [Example 054, 3-Amino-4-(7-fluoro-1H-indazol-4-yl)-7,8-dimethyl-1H-1,5-naphthyridin-2-one], in data set [1], the “Clearance of Human hepatocyte” value was under 1 μL/min/10^6 cell.

For the compound `Cc1nc(C)c2[nH]c(=O)c(N)c(-c3ccc(F)c4[nH]ncc34)c2n1` [Example 084, 7-Amino-8-(7-fluoro-1H-indazol-4-yl)-2,4-dimethyl-5H-pyrido[3,2-d]pyrimidin-6-one], the “Clearance of Human microsome” value in data set [2] is 6.15 mL/min/kg. Moreover, the IC50 in data set [3] is under 10 nM.

`Cc1c(S(C)(=O)=O)cnc2c(-c3ccc(F)c4[nH]ncc34)c(N)c(=O)[nH]c12` [Example 143, 3-Amino-4-(7-fluoro-1H-indazol-4-yl)-8-methyl-7-methylsulfonyl-1H-1,5-naphthyridin-2-one]: the “Clearance of Human microsome” value in data set [2] came to 6.15 mL/min/kg. The concentration for half-maximal inhibition (IC50) in data set [3] amounted to 11 nM.

For the compound `Cc1cc2[nH]c(=O)c(N)c(-c3ccc(F)c4[nH]ncc34)c2nc1C1CCN(C)CC1` [Example 082, 3-Amino-4-(7-fluoro-1H-indazol-4-yl)-7-methyl-6-(1-methyl-4-piperidyl)-1H-1,5-naphthyridin-2-one], in data set [2], the “Clearance of Human microsome” value turned out to be 6.15 mL/min/kg. Moreover, in data set [3], the IC50 stood at 16.4 nM.

For `Cc1cnc(Cl)c2c(-c3ccc(F)c4[nH]ncc34)c(N)c(=O)[nH]c12` [Example 164, 3-Amino-5-chloro-4-(7-fluoro-1H-indazol-4-yl)-8-methyl-1H-1,6-naphthyridin-2-one], the “Clearance of Human microsome” value in data set [2] amounted to 6.15 mL/min/kg. Also, the half-maximal inhibitory concentration (IC50) in data set [3] was under 10 nM.

Take `Cc1cc2[nH]c(=O)c(N)c(-c3ccc(F)c4[nH]ncc34)c2nc1C1CN(C)C1` [Example 098, 3-Amino-4-(7-fluoro-1H-indazol-4-yl)-7-methyl-6-(1-methylazetidin-3-yl)-1H-1,5-naphthyridin-2-one]: the “Clearance of Human microsome” value in data set [2] was 7.72 mL/min/kg. The half-maximal inhibitory concentration (IC50) in data set [3] turned out to be 18.7 nM.

Take `Cc1c(C2COC2)cnc2c(-c3ccc(F)c4[nH]ncc34)c(N)c(=O)[nH]c12` [Example 122, 3-Amino-4-(7-fluoro-1H-indazol-4-yl)-8-methyl-7-(oxetan-3-yl)-1H-1,5-naphthyridin-2-one]: the “Clearance of Human microsome” value in data set [2] is listed as 6.15 mL/min/kg. For the same compound, the half-inhibitory concentration (IC50) in data set [3] was under 10 nM.

Turning to `Cc1cc2[nH]c(=O)c(N)c(-c3ccc(F)c4[nH]ncc34)c2nc1C#CC(C)O` (stereo not drawn) [Example 074, 3-Amino-4-(7-fluoro-1H-indazol-4-yl)-6-(3-hydroxybut-1-ynyl)-7-methyl-1H-1,5-naphthyridin-2-one], in data set [2], the “Clearance of Human microsome” value is 6.15 mL/min/kg. For the same compound, the IC50 in data set [3] worked out at 11 nM.

Regarding `Cc1cc2[nH]c(=O)c(N)c(-c3ccc(F)c4[nH]ncc34)c2nc1C#CC1COCC1O` (stereo not drawn) [Example 073, 3-Amino-4-(7-fluoro-1H-indazol-4-yl)-6-[2-(4-hydroxytetrahydrofuran-3-yl)ethynyl]-7-methyl-1H-1,5-naphthyridin-2-one], in data set [2], the “Clearance of Human microsome” value is 6.15 mL/min/kg. Also, the concentration for half-maximal inhibition (IC50) in data set [3] came out at 14 nM.

Regarding `Cc1c(-c2ccnnc2)cnc2c(-c3ccc(F)c4[nH]ncc34)c(N)c(=O)[nH]c12` [Example 120, 3-Amino-4-(7-fluoro-1H-indazol-4-yl)-8-methyl-7-pyridazin-4-yl-1H-1,5-naphthyridin-2-one], the “Clearance of Human microsome” value in data set [2] worked out at 6.15 mL/min/kg. Besides, the IC50 in data set [3] worked out at 17.2 nM.

`COc1ncc(C)c2[nH]c(=O)c(N)c(-c3ccc(F)c4[nH]ncc34)c12` [Example 172, 3-Amino-4-(7-fluoro-1H-indazol-4-yl)-5-methoxy-8-methyl-1H-1,6-naphthyridin-2-one]: the “Clearance of Human microsome” value in data set [2] turned out to be 6.20 mL/min/kg. Also, in data set [3], the IC50 was found to be 10.9 nM.

For the compound `Cc1nc(C2CC2)cc2[nH]c(=O)c(N)c(-c3ccc(F)c4[nH]ncc34)c12` [Example 166, 3-Amino-7-cyclopropyl-4-(7-fluoro-1H-indazol-4-yl)-5-methyl-1H-1,6-naphthyridin-2-one], in data set [2], the “Clearance of Human microsome” value amounted to 6.15 mL/min/kg. Also, the half-inhibitory concentration (IC50) in data set [3] came to 14.7 nM.

Turning to `Cc1nc2c(-c3ccc(F)c4[nH]ncc34)c(N)c(=O)[nH]c2c(C)c1C` [Example 110, 3-Amino-4-(7-fluoro-1H-indazol-4-yl)-6,7,8-trimethyl-1H-1,5-naphthyridin-2-one], in data set [2], the “Clearance of Human microsome” value amounted to 6.15 mL/min/kg. Also, the IC50 in data set [3] stood at 16.7 nM.

Regarding `Cc1cc2c(-c3ccc(F)c4[nH]ncc34)c(N)c(=O)[nH]c2nc1C` [Example 107, 3-Amino-4-(7-fluoro-1H-indazol-4-yl)-6,7-dimethyl-1H-1,8-naphthyridin-2-one], in data set [2], the “Clearance of Human microsome” value came out at 7.13 mL/min/kg. Moreover, the half-inhibitory concentration (IC50) in data set [3] is 22.3 nM.

`CCOC(=O)COc1nc2c(-c3ccc(F)c4[nH]ncc34)c(N)c(=O)[nH]c2cc1C` [Example 061, Ethyl 2-[[7-amino-8-(7-fluoro-1H-indazol-4-yl)-3-methyl-6-oxo-5H-1,5-naphthyridin-2-yl]oxy]acetate]: the “Clearance of Human microsome” value in data set [2] is recorded as 6.15 mL/min/kg. Also, the IC50 in data set [3] is 17.7 nM.

With `Cc1cc2[nH]c(=O)c(N)c(-c3ccc(F)c4[nH]ncc34)c2nc1C#N` [Example 092, 7-Amino-8-(7-fluoro-1H-indazol-4-yl)-3-methyl-6-oxo-5H-1,5-naphthyridine-2-carbonitrile], in data set [2], the “Clearance of Human microsome” value was 6.15 mL/min/kg. Further, the half-inhibitory concentration (IC50) in data set [3] was 14.4 nM.

With `Cc1cc2[nH]c(=O)c(N)c(-c3ccc(F)c4[nH]ncc34)c2nc1C1CCNCC1` [Example 069, 3-Amino-4-(7-fluoro-1H-indazol-4-yl)-7-methyl-6-(4-piperidyl)-1H-1,5-naphthyridin-2-one], the “Clearance of Human microsome” value in data set [2] is recorded as 7.78 mL/min/kg. The 50% inhibitory concentration (IC50) in data set [3] was 10.9 nM.

Consider `Cc1c(N2CCC2)cnc2c(-c3ccc(F)c4[nH]ncc34)c(N)c(=O)[nH]c12` [Example 117, 3-Amino-7-(azetidin-1-yl)-4-(7-fluoro-1H-indazol-4-yl)-8-methyl-1H-1,5-naphthyridin-2-one], for which, in data set [2], the “Clearance of Human microsome” value came out at 7.72 mL/min/kg. For the same compound, in data set [3], the IC50 is 14.9 nM.

Take `Cc1c([S+](C)[O-])cnc2c(-c3ccc(F)c4[nH]ncc34)c(N)c(=O)[nH]c12` (stereo not drawn) [Example 142, 3-Amino-4-(7-fluoro-1H-indazol-4-yl)-8-methyl-7-methylsulfinyl-1H-1,5-naphthyridin-2-one]: the “Clearance of Human microsome” value in data set [2] worked out at 6.15 mL/min/kg. Besides, the half-inhibitory concentration (IC50) in data set [3] was determined as 18.4 nM.
